Measurements as given in ChEMBL document CHEMBL5365396, “Design, synthesis and anti-tumor evaluation of plinabulin derivatives as potential agents targeting β-tubulin” (Bioorg Med Chem Lett, 2023).
The source made the active and inactive calls. The rule behind the calls is not given here.

Columns and labels:
NCI-H460 = assay: Antiproliferative activity against human NCI-H460 cells assessed as cell growth inhibition by MTT assay; format: functional, cell-based
BXPC-3 = assay: Antiproliferative activity against human BXPC-3 cells assessed as cell growth inhibition by MTT assay; format: functional, cell-based
HCT-116 [1] = assay: Antiproliferative activity against human HCT-116 cells assessed as cell growth inhibition by MTT assay; format: functional, cell-based
[2] = molecular target: T1, Tubulin beta (Homo sapiens) (UniProt P68371+Q9H4B7+Q13509+P04350+Q3ZCM7+P07437+Q13885+Q9BVA1+Q9BUF5+A6NNZ2); assay: Induction of beta-tubulin depolymerization in human HCT-116 cells assessed as disruption of microtubule network by measuring abnormality in formation of spindle bodies at 10 nM measured after 24 hrs by DAPI staining based immunofluorescence assay; format: cell-based
HCT-116 [3] = assay: Induction of apoptosis in human HCT-116 cells assessed as increase in late apoptosis cells at 20 nM by Annexin-V-FITC and PI staining based flow cytometry analysis relative to control; format: functional
HCT-116 [4] = assay: Induction of cell cycle arrest in human HCT-116 cells assessed as accumulation of cells at S phase at 10 nM by propidium iodide staining based flow cytometry analysis (reference value: 39.4 %); format: functional
HCT-116 [5] = assay: Induction of apoptosis in human HCT-116 cells assessed as late apoptotic cells at 5 nM by Annexin-V-FITC and PI staining based flow cytometry (reference value: 1.75 %); format: functional
[6] = Induction of apoptosis in human HCT-116 cells assessed as early apoptotic cells at 5 nM by Annexin-V-FITC and PI staining based flow cytometry (reference value: 3.20 %); format: functional
HCT-116 [7] = assay: Induction of cell cycle arrest in human HCT-116 cells assessed as accumulation of cells at G1 phase at 5 nM by propidium iodide staining based flow cytometry analysis (reference value: 37.85 %); format: functional
HCT-116 [8] = assay: Induction of apoptosis in human HCT-116 cells assessed as late apoptotic cells at 10 nM by Annexin-V-FITC and PI based flow cytometry (reference value: 1.75 %); format: functional
HCT-116 [9] = assay: Induction of cell cycle arrest in human HCT-116 cells assessed as increase in accumulation at G2/M phase at 10 nM by propidium iodide staining based flow cytometry relative to control; format: functional
HCT-116 [10] = assay: Induction of apoptosis in human HCT-116 cells assessed as early apoptotic cells at 10 nM by Annexin-V-FITC and PI staining based flow cytometry (reference value: 3.20 %); format: functional
[11] = molecular target: T1, Tubulin beta (Homo sapiens); assay: Induction of beta-tubulin depolymerization in human HCT-116 cells assessed as microtubule disruption at 10 nM incubated for 24 hrs by DAPI staining based immunofluorescence assay relative to control; format: cell-based
HCT-116 [12] = assay: Induction of cell cycle arrest in human HCT-116 cells assessed as accumulation of cells at S phase at 5 nM by propidium iodide staining based flow cytometry analysis (reference value: 39.4 %); format: functional
HCT-116 [13] = assay: Induction of cell cycle arrest in human HCT-116 cells assessed as increase in accumulation at G2/M phase at 5 nM by propidium iodide staining based flow cytometry relative to control; format: functional
HCT-116 [14] = assay: Induction of cell cycle arrest in human HCT-116 cells assessed as increase in accumulation at G2/M phase at 20 nM by propidium iodide staining based flow cytometry relative to control; format: functional
HCT-116 [15] = assay: Induction of cell cycle arrest in human HCT-116 cells assessed as accumulation of cells at S phase at 20 nM by propidium iodide staining based flow cytometry analysis (reference value: 39.4 %); format: functional
HCT-116 [16] = assay: Induction of cell cycle arrest in human HCT-116 cells assessed as increase in accumulation at G2/M phase by propidium iodide staining based flow cytometry; format: functional; details: dose 5-20 nM
HCT-116 [17] = assay: Induction of cell cycle arrest in human HCT-116 cells assessed as accumulation of cells at G1 phase at 20 nM by propidium iodide staining based flow cytometry analysis (reference value: 37.85 %); format: functional
HCT-116 [18] = assay: Induction of apoptosis in human HCT-116 cells assessed as increase in early apoptosis cells at 20 nM by Annexin-V-FITC and PI staining based flow cytometry analysis relative to control; format: functional
HCT-116 [19] = assay: Induction of cell cycle arrest in human HCT-116 cells assessed as accumulation of cells at G1 phase at 10 nM by propidium iodide staining based flow cytometry analysis (reference value: 37.85 %); format: functional

Row | Compound | IC50 (NCI-H460) | IC50 (BXPC-3) | IC50 (HCT-116 [1]) | further results
1 | CC(C)(C)c1[nH]cnc1/C=c1\[nH]c(=O)/c(=C/c2cccc(NC(=O)CN)c2)[nH]c1=O | 843 nM | 272 nM | 214 nM | –
2 | CC(C)(C)c1[nH]cnc1/C=c1\[nH]c(=O)/c(=C/c2cccc(NC(=O)c3ccc(F)cc3)c2)[nH]c1=O | 271 nM | 595 nM | 123 nM | –
3 | CC(C)(C)c1[nH]cnc1/C=c1\[nH]c(=O)/c(=C/c2cccc(NC(=O)C3CCCC3)c2)[nH]c1=O | 743 nM | 3130 nM | 643 nM | –
4 | CC(=O)Nc1cccc(/C=c2\[nH]c(=O)/c(=C/c3nc[nH]c3C(C)(C)C)[nH]c2=O)c1 | 667 nM | 540 nM | 238 nM | –
5 | CC(C)(C)c1[nH]cnc1/C=c1\[nH]c(=O)/c(=C/c2cccc(NC(=O)C3CCCCC3)c2)[nH]c1=O | 618 nM | 1020 nM | 1320 nM | –
6 | CC(C)(C)c1[nH]cnc1/C=c1\[nH]c(=O)/c(=C/c2cccc(NC(=O)c3cccnc3)c2)[nH]c1=O | 4850 nM | 1600 nM | 1060 nM | –
7 | CC(C)(C)c1[nH]cnc1/C=c1\[nH]c(=O)/c(=C/c2cccc3cc[nH]c23)[nH]c1=O | 286 nM | 9.5 nM | 390 nM | –
8 | CC(C)(C)c1[nH]cnc1/C=c1\[nH]c(=O)/c(=C/c2cccc(NC(=O)c3cccc(C(=O)c4ccccc4)c3)c2)[nH]c1=O | > 5000 nM | 4460 nM | > 5000 nM | –
9 | CC(C)(C)c1[nH]cnc1/C=c1\[nH]c(=O)/c(=C/c2ccc3[nH]ccc3c2)[nH]c1=O | 223 nM | 6.7 nM | 5.9 nM | –
10 | CC(C)(C)c1[nH]cnc1/C=c1\[nH]c(=O)/c(=C/c2cccc(N)c2)[nH]c1=O | 165 nM | 80.1 nM | 15.3 nM | –
11 | CC(C)(C)c1[nH]cnc1/C=c1\[nH]c(=O)/c(=C/c2cccc(NC(=O)C3CC3)c2)[nH]c1=O | 2340 nM | 1570 nM | 730 nM | –
12 | CC(C)(C)c1[nH]cnc1/C=c1\[nH]c(=O)/c(=C/c2cc3ccccc3[nH]2)[nH]c1=O | 1390 nM | 2770 nM | 3310 nM | –
13 | CC(C)(C)c1[nH]cnc1/C=c1\[nH]c(=O)/c(=C/c2cccc(NC(=O)C3CCC3)c2)[nH]c1=O | 1490 nM | 585 nM | 895 nM | –
14 | CC(C)(C)c1[nH]cnc1/C=c1\[nH]c(=O)/c(=C/c2cccc(NC(=O)c3ccccn3)c2)[nH]c1=O | 3850 nM | 520 nM | 226 nM | –
15 | COc1ccc(C(=O)Nc2cccc(/C=c3\[nH]c(=O)/c(=C/c4nc[nH]c4C(C)(C)C)[nH]c3=O)c2)cc1 | 1170 nM | 1510 nM | 1040 nM | –
16 | Cc1ccc(F)cc1C(=O)Nc1cccc(/C=c2\[nH]c(=O)/c(=C/c3nc[nH]c3C(C)(C)C)[nH]c2=O)c1 | 1310 nM | 1590 nM | 362 nM | –
17 | CC(C)(C)c1[nH]cnc1/C=c1\[nH]c(=O)/c(=C/c2cccc(NC(=O)C3CCCN3)c2)[nH]c1=O (configuration not stated) | 302 nM | 22.9 nM | 72.1 nM | –
18 | CC(C)C(=O)Nc1cccc(/C=c2\[nH]c(=O)/c(=C/c3nc[nH]c3C(C)(C)C)[nH]c2=O)c1 | 977 nM | 1460 nM | 606 nM | –
19 | CC(C)(C)c1[nH]cnc1/C=c1\[nH]c(=O)/c(=C/c2c[nH]c3ccccc23)[nH]c1=O | 82.8 nM | 13.7 nM | 6.5 nM | –
20 | CC(C)(C)c1[nH]cnc1/C=c1\[nH]c(=O)/c(=C/c2cccc(NC(=O)c3cc4ccccc4[nH]3)c2)[nH]c1=O | > 5000 nM | 1760 nM | 2660 nM | –
21 | CC(C)(C)C(=O)Nc1cccc(/C=c2\[nH]c(=O)/c(=C/c3nc[nH]c3C(C)(C)C)[nH]c2=O)c1 | 3180 nM | 1890 nM | 2880 nM | –
22 | CC(C)(C)c1[nH]cnc1/C=c1\[nH]c(=O)/c(=C/c2cccc3[nH]ccc23)[nH]c1=O | 20.9 nM | 16.7 nM | 7.3 nM | Activity [2]: Active; fold change (FC) (HCT-116 [3]): 3.9; Activity (HCT-116 [4]): 37.05%; Activity (HCT-116 [5]): 2%; Activity [6]: 4.9%; Activity (HCT-116 [7]): 33.6%; Activity (HCT-116 [8]): 2.55%; fold change (FC) (HCT-116 [9]): 1.4; Activity (HCT-116 [10]): 6.15%; Activity [11]: 77%; Activity (HCT-116 [12]): 41.45%; fold change (FC) (HCT-116 [13]): 1.1; fold change (FC) (HCT-116 [14]): 2.7; Activity (HCT-116 [15]): 41.7%; Activity (HCT-116 [16]): Dose-Dependent Effect; Activity (HCT-116 [17]): 5.69%; fold change (FC) (HCT-116 [18]): 6.4; Activity (HCT-116 [19]): 32.3%
23 | CC(C)(C)c1[nH]cnc1/C=c1\[nH]c(=O)/c(=C/c2ccccc2)[nH]c1=O [PLINABULIN] | 30.9 nM | 18.4 nM | 8.8 nM | Activity [2]: Active; Activity [11]: 67%
24 | CC(C)(C)c1[nH]cnc1/C=c1\[nH]c(=O)/c(=C/c2cccc(NC(=O)c3ccccc3)c2)[nH]c1=O | 936 nM | 398 nM | 47.6 nM | –
25 | CCC(=O)Nc1cccc(/C=c2\[nH]c(=O)/c(=C/c3nc[nH]c3C(C)(C)C)[nH]c2=O)c1 | 2290 nM | 598 nM | 243 nM | –
26 | Cc1ccc(C(=O)Nc2cccc(/C=c3\[nH]c(=O)/c(=C/c4nc[nH]c4C(C)(C)C)[nH]c3=O)c2)c(C)c1 | 1280 nM | 2590 nM | 504 nM | –
27 | CC(C)(C)c1[nH]cnc1/C=c1\[nH]c(=O)/c(=C/c2cccc(NC(=O)Cc3ccccc3)c2)[nH]c1=O | 1100 nM | 1700 nM | 474 nM | –
28 | CC(C)[C@H](CN)C(=O)Nc1cccc(/C=c2\[nH]c(=O)/c(=C/c3nc[nH]c3C(C)(C)C)[nH]c2=O)c1 (stereo in doubt) | 1430 nM | 31.4 nM | 31.3 nM | –
29 | CC(C)(C)c1[nH]cnc1/C=c1\[nH]c(=O)/c(=C/c2ccc3cc[nH]c3c2)[nH]c1=O | 1840 nM | 3770 nM | 2900 nM | –
